Reference: paper PMC8642539, “The novel BET inhibitor UM-002 reduces glioblastoma cell proliferation and invasion” (Scientific Reports, 2021)
Read-outs that look alike come from different tables or passages of the source.

Key:
[1] = set-up: method as in PMID 26392221; conditions: cited from earlier work
GBM22 cells [2] = assay: In vitro dose response, CellTiter-Glo ATP, GBM22; format: cell-based; conditions: Homo sapiens, 72 h
Procedure: (§1) Figure 1 UM-002 reduces GBM cell proliferation in vitro. (A) Structure of UM-002. […] Reduction in ATP levels was measured using CellTiter-Glo after 72 h of compound treatment and luminescence was normalized to the positive control. Dose response curves were calculated using a variable slope (4 parameters) fit. EC50 and the percentage of positive control at EC50 was calculated for each compound.
(§2) The patient derived xenograft (PDX) glioblastoma cell lines, GBM22 and GBM39, were obtained from the Mayo Clinic Brain Tumor PDX national resource. Cells were cultured as previously described[39],[40]. Since genetic drift is known to occur with passage in vivo and in vitro, a stock of early passage tumor tissue is maintained in storage and xenograft lines are passaged a maximum of 20 times before restoration from early passage tissue. […]
(§3) PDX cells were plated at 3000 cells/well in a 384 well flat bottom plate, and adherent cultures were established overnight. […] Following a 72-h incubation, CellTiter-Glo (Promega, Wisconsin, USA) was used to measure ATP content and luminescence was read on an EnVision plate reader, as previously described. Luminescence was normalized to 10 µM Velcade as a positive control, and 0.1% DMSO as a negative control. Dose response curves were calculated in GraphPad PRISM (version 8.4.3) using a variable slope (four parameter) fit.

GBM39 cells = assay: In vitro dose response, CellTiter-Glo ATP, GBM39; format: cell-based; conditions: Homo sapiens
Procedure: as §1, §2, §3

GBM22 cells [3] = assay: Cerebral brain organoid-GBM co-culture, proliferation and invasion; format: cell-based, human; conditions: 9 days co-culture; JQ1 500 nM, MK-8628 1000 nM, UM-002 100 nM
Source text: On day 0 of organoid production, induced pluripotent stem cells (iPSCs), at ~ 80% confluence, were dissociated into small clumps with gentle cell dissociation reagent (StemCell Technologies, 07174) and plated into round-bottom, low-attachment 96 well plates (ThermoFisher, 174925; ~ 15,000 cells per well). Initial media, consisting of mTeSR Plus (Stem Cell Technologies, 05825) supplemented with 5 µm A-83 (Peprotech, 9094360) and 5 µm Dorsomorphin (Peprotech, 8666430), was replaced every other day starting at day 2 by removing half of the media in each well (100 µL) and replacing with fresh media three times. On day 8, media was changed to a base media of Neurobasal A media (Gibco, 10888022) with NeuroCult SM1 (StemCell Technologies, 05711), glutamax (Gibco, 35050061), and Pen/strep (Gibco, 15140122) supplemented with EGF (20 ng/ml; Alomone Labs, E-100) and FGF2 (20 ng/ml; Alomone Labs, F-170). Media was similarly exchanged every other day until day 20 when the mitogenic supplements were exchanged for differentiating factors: BDNF (20 ng/ml; Alomone Labs, B-250) and NT3 (20 ng/ml; Alomone Labs, N-260) in the same base media. After two weeks in differentiation media, organoids could be maintained in the base media for > 100 days[41]. […]

cerebral brain organoids = assay: Brain organoid viability (organoid volume and surface area) in co-culture; format: cell-based, human; conditions: 9 days; JQ1 500 nM, MK-8628 1000 nM, UM-002 100 nM
Procedure: GBM22 cells were dissociated into a single cell suspension with Trypsin (Gibco, 15,400,054) and seeded (17,500 cells/well) into round-bottom, low-attachment 96-well plates containing a single mature organoid per well. Cells were seeded by removing 100 µL of media and replacing with 100 µL of cell suspension. GBM cells were allowed to settle around the organoid and attach overnight. After 24 h (day 1 of co-culturing) organoids were either fixed (see below) and stored in PBS as an untreated control or treated with compounds. For treatment, compounds were dissolved in DMSO and diluted in organoid maintenance media. […] On the first day of treatment, organoids were treated by removing half of the media (100 µL) and replacing with 100 µL of a 2 × compound solution. Compounds were renewed with 1 × solutions in the new media every other day following the normal media replacement regimen until the conclusion of the experiment.
Statistical comparisons performed using an unpaired, two-tailed t test or one-way ANOVA with Tukey HSD post-hoc.

recurrent GBM = tested on: recurrent GBM; set-up: method as in doi:10.1200/JCO.2016.34.15_suppl.e14123; conditions: 12 recurrent GBM patients, study terminated; cited from earlier work

Row | SMILES | Phenotype in mice [1] | EC50 (GBM22 cells [2]; read-out: GBM22 logEC50 (converted)) [nM] | EC50 (GBM22 cells [2]; CellTiter-Glo, 4 parameter fit, read-out: GBM22 EC50) [nM] | EC50 (GBM39 cells; GBM39, 72 h, read-out: GBM39 logEC50 (converted)) [nM] | EC50 (GBM39 cells; GBM39, 72 h, CellTiter-Glo, 4 parameter fit, read-out: GBM39 EC50) [nM] | Number of invading GBM cells relative to DMSO control (GBM22 cells [3]) | Total number of GBM cells relative to DMSO control (GBM22 cells [3]) | Brain organoid viability, as determined by organoid volume and surface area (cerebral brain organoids) | Progression-free survival (recurrent GBM)
1 | CC(=O)N1c2ccc(-c3ccc(CN4CCCCC4)cc3)cc2[C@H](Nc2ccccc2)C[C@H]1C [I-BET858] | autism spectrum disorder phenotype |  |  |  |  |  |  |  | 
2 | Cc1sc2c(c1C)C(c1ccc(Cl)cc1)=N[C@@H](CC(=O)Nc1ccc(O)cc1)c1nnc(C)n1-2 [MK-8628] |  | 1390 | 1390 | 813 | 812 | reduced | reduced | did not negatively impact | no increase in progression-free survival
